Values after ≈ are worked out from the molar mass of the structure shown.

Three compounds from patent US20050239738A1, “Genetic inhibition of epidermal growth factor receptor function and carcinoma cell radiosensitization” (priority 2000, published 2005) can be followed below.

Holding throughout (assay type): cell-based, human
Test [1] has as its system MDA-TR15-EGFR-CD533 cells. The experiment in a line: Repeated radiation exposure (5 x 2 Gy) MTT cell growth assay. On the procedure:
MDA-TR15-EGFR-CD533 cells were seeded in RPMI/5% FBS at 1000 or 2000 cells/well in 96-well tissue culture plates for control and radiation experiments, respectively. After cell attachment overnight, 50% of the cultures were exposed to Dox at 1 μg/ml. Within 24 h of Dox exposure, drug-exposed and control cultures were irradiated once-daily with 2 Gy for 5 consecutive days.
Growth rate analysis. For irradiation and control conditions, 1000 and 500 cells per well of 24-well plates were seeded, respectively. Cells were maintained in RPMI/5FCS without media change throughout the period of the experiment. After 24 h of seeding, 50% of the plates were treated with 10 μM PD98059 for 2 h while negative controls were exposed to equivalent DMSO concentrations of 1 μl/ml in RPMI/5FCS. This was followed by 2 Gy daily radiation exposures for 5 consecutive days; control cells were sham irradiated. […] Growth rates were quantified relative to absorbance at 540 nm on day 1.

The test system of another test is c-Jun. The test can be described thus: Western blot of c-Jun protein and Ser-63 phosphorylated c-Jun. The method, then:
(§1) Immunoprecipitation and Western analysis. For immunochemical analyses, cells frozen at −20° C. were lysed in ice-cold lysis buffer, 25 mM β-glycerophosphate, pH 7.4, 25 mM Tris, pH 7.4, 10% (v/v) glycerol, 1.5 mM EGTA, 0.5 mM EDTA, 1% Triton X-100, 1 mM Na-orthovanadate, 1 mM Na-pyrophosphate, 10 μg/ml aprotinin, 10 μg/ml leupeptin, 1 μm benzamidine, 100 μg/ml PMSF. Insoluble material was removed by centrifugation at 14 000 g for 10 min, and the clarified protein lysates were divided equally for immunoprecipitation with antibodies against JNKI and MAPK using established techniques (Boulton et al., 1990). Lysates were incubated with Ab at 4° C. for 3 h, the agarose-Ab immunoprecipitates were washed twice in lysis buffer, once in lysis buffer containing 0.1% Triton X-100, and once in 1× kinase buffer, 25 mM β-glycerophosphate, pH 7.4, 15 mm MgCl2. For Western blot analyses, equal amounts of cellular protein were separated by SDS-PAGE, electroblotted to nitrocellulose, probed with specific Abs against c-Jun protein and c-Jun 0phosphorylated at Ser-63, followed by chemilumescence detection. Expression of Tam 67 in MDA-TR15-EGFR-CD533 cells infected with recombinant adenovirus was determined by Western analysis using a c-Jun Ab specific for the COOH-terminus.

Another test has as its system JNK1. The test can be described thus: JNK1 immune complex kinase assay. The method, then: as §1, with “Insoluble material was removed by centrifugation at 14 000 g for 10 min, and the clarified protein lysates were divided equally for immunoprecipitation with antibodies against JNKI and MAPK using established techniques (Boulton et al., 1990).” left out
(§2) Immune complex kinase assays.
(§3) Aliquots of the assay mixture were placed on P81 paper and non-specific binding of [^32P]-γ-ATP removed by extensive washing in 180 mM phosphoric acid. Incorporation of ^32P into bound MBP substrate was measured by liquid scintillation spectroscopy (Beckman Instruments Inc, Schaumburg, Ill., USA).

In another test the test system is MAPK. The experiment in a line: MAPK immune complex kinase assay. The method, then:
(§4) Dox at 1 μg/ml was added 48 h prior to radiation exposure and cell harvesting with a medium change to RPMI/0.5% FBS with or without Dox for the final 24 h. This medium was replaced by RPMI/0.5% FBS 2 h prior to treatment.
as §1, with “Insoluble material was removed by centrifugation at 14 000 g for 10 min, and the clarified protein lysates were divided equally for immunoprecipitation with antibodies against JNKI and MAPK using established techniques (Boulton et al., 1990).” left out
as §2, §3

In test [2] the test system is MDA-TR15-EGFR-CD533 cells. The experiment in a line: TUNEL assay for apoptosis. The method, then:
TUNEL assay for apoptosis. Cells were placed at a density of 2×10^4 cells into dual well slides and allowed to adhere overnight in RPMI/5FCS. Cells were then exposed, prior to irradiation, for 48 h to Dox or control solute for induction of EGFR-CD533. PD98059 at a final concentration of 10 μM was added 2 h prior to irradiation at 2 Gy. Cells were infected with recombinant Ad-TAM67 for expression of Tam67 for 48 h prior to irradiation. […] Slides were stored at −20° C. until examination by fluorescence microscopy using a fluorescein filter.

The next test deals with EGFR-WT. The experiment in a line: EGFR-WT Tyr autophosphorylation, immunoprecipitation/Western blot. The settings on record: 2 ng/ml EGF, MDA-TR15-EGFR-CD533 cells without Dox. The method, then: as §4
The subject of another test is EGFR-CD533 expression. The experiment in a line: Doxycycline induction of EGFR-CD533 mRNA and protein (RNase protection, Northern, 35S-Met labeling). The text has this: The kinetics of EGFR-CD533 induction and its decay after Dox removal were monitored by metabolic labeling with ^35S-Met as described in the text.
Setting [3] is: MDA-TR15-EGFR-CD533 cells, basal activity before irradiation, after pretreatment.
The mark [4] stands for this setting: parental MDA-TR15 cells, Dox 48 h.
Setting [5] is: MCF-TR5-EGFR-CD533 cells, 48 h Dox exposure.
Setting [6] is: MDA-TR15-EGFR-CD533 cells, 48 h Dox exposure.

Take `COc1cccc(-c2cc(=O)c3ccccc3o2)c1N` [PD98059]: the “lower cell numbers on day 7 relative to irradiated control cells” value in test [1] (5 daily 2 Gy exposures, MTT, day 7 of growth period) is given as 5.0 (±0.03) fold. Besides, the “inhibition of cell growth / decrease in cell numbers without irradiation” value in test [1] (un-irradiated, day 7, MTT) was found to be 25%. The “c-Jun protein levels relative to untreated cells” value with c-Jun (10 μM PD98059 2 h) is given as “more than twofold reduction”. The “increase in c-Jun Ser-63 phosphorylation relative to c-Jun protein level” value in the test on c-Jun (10 μM PD98059 pretreatment, 10 min after 2 Gy) was determined as 41 fold. For the same compound, the “stimulation of c-Jun phosphorylation under MEK1/2 inhibition compared to radiation alone” value in the test on c-Jun (PD98059 + 2 Gy, sustained up to 60 min) is listed as “fivefold greater”. For the same compound, in the test on JNK1 (10 μM PD98059, between 5 and 25 min, no radiation), the “transient activation of JNK1 without irradiation” value is 1.35 (±0.02) fold. Also, in the test on JNK1 (2 Gy, early time points (within 10 min), MDA-TR15-EGFR-CD533 cells), the “radiation-induced immediate JNK1 activation” value is 3.9 (±0.1) fold. In the test with JNK1 (setting [3]), the “JNK1 activity at time=0” value is on record as 3100±200 c.p.m. In the test on MAPK (10 μm PD98059 pretreatment, 2 Gy, MDA-TR15-EGFR-CD533 cells), the “inhibition of radiation-induced MAPK activation” value is listed as greater than 70%. Also, the “MAPK activity at time=0” value in the test with MAPK (setting [3]) worked out at 16900±575 c.p.m. In addition, the “apoptosis rate after irradiation” value in test [2] (TUNEL 24 h after single 2 Gy) is recorded as 6.3 (±0.1) %. Moreover, in test [2] (TUNEL, without irradiation), the basal apoptosis rate is 3.7 (±0.1) %. Moreover, the “increase in basal apoptosis rate” value in test [2] (TUNEL, without irradiation, relative to control) is on record as roughly 20%.

Take “EGF: epidermal growth factor, natural ligand of EGFR”: in the test on EGFR-WT, the “activation of EGFR-WT Tyr phosphorylation” value was 9.8 fold.

Take `C[C@H]1c2cccc(O)c2C(=O)C2=C(O)[C@]3(O)C(=O)C(C(N)=O)=C(O)[C@@H](N(C)C)[C@@H]3[C@@H](O)[C@@H]21` [Dox, doxycycline]: the “JNK1 activity at time=0” value with JNK1 (setting [4]) stood at 3500±300 c.p.m. Moreover, the MAPK activity with MAPK (setting [4]) was found to be 16000±1600 c.p.m. The same compound showed an EGFR-CD533 induced in the test with EGFR-CD533 expression (1.0 μg/ml Dox, at 24 h, 35S-Met incorporation, MDA-TR15-EGFR-CD533 cells) greater than 90%. The EC50 in the test with EGFR-CD533 expression (Homo sapiens, MDA-TR15-EGFR-CD533 cells, 48 h exposure, 0.01-1.0 μg/ml, read-out: Dox concentration giving half maximal response of EGFR-CD533 induction) was determined as 0.1 µg/mL (≈ 0.225 µM). Besides, in the test on EGFR-CD533 expression (setting [5]), the “increase in EGFR-CD533 mRNA levels” value was determined as 5 fold and the “induction of the 110 kD EGFR-CD533 truncated receptor” value was “greater than 20 fold”. In addition, in the test on EGFR-CD533 expression (setting [6]), the “increase in EGFR-CD533 mRNA levels” value is “greater than 30 fold” and the “induction of EGFR-CD533 at the protein level” value is “greater than 50 fold”.
